Reference: patent EP1935986B1, “Luminogenic and fluorogenic compounds and methods to detect molecules or conditions” (priority 2005, dated 2006)

What was measured:
[1] = biological target: T1, human recombinant monoamine oxidase B (MAO B) (Homo sapiens, UniProt P27338); test: Two-step luminescent MAO assay with luciferin derivative; format: biochemical; details: fit of Tables 23-24 (TableCurve)
T1 construct: purchased Sigma Chemical Company M-7441; host or cells: baculovirus infected insect cells (microsomes)
T1 sequence (P27338 1-520): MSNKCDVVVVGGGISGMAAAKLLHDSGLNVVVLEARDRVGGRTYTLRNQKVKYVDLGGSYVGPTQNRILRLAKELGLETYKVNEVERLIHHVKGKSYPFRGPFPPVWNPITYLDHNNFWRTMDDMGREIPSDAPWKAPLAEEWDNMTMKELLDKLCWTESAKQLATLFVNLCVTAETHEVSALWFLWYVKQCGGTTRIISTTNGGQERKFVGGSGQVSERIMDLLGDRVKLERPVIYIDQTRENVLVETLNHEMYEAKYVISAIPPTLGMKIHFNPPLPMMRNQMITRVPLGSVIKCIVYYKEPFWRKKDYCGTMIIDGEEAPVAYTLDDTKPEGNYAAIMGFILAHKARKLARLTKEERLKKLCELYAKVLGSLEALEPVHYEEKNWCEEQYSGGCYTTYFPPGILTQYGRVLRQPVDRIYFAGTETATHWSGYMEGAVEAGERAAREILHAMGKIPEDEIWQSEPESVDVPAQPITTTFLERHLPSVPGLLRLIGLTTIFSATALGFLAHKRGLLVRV

QuantiLum Luciferase = biological target: T2, QuantiLum Luciferase (Photinus pyralis, UniProt P08659); test: Scaffolds: light emission of luciferin derivatives with QuantiLum luciferase alone, + Co A, + DTT, + Co A and DTT; format: biochemical, firefly
T2 construct: purchased Promega Corporation E170
T2 sequence (P08659 whole entry): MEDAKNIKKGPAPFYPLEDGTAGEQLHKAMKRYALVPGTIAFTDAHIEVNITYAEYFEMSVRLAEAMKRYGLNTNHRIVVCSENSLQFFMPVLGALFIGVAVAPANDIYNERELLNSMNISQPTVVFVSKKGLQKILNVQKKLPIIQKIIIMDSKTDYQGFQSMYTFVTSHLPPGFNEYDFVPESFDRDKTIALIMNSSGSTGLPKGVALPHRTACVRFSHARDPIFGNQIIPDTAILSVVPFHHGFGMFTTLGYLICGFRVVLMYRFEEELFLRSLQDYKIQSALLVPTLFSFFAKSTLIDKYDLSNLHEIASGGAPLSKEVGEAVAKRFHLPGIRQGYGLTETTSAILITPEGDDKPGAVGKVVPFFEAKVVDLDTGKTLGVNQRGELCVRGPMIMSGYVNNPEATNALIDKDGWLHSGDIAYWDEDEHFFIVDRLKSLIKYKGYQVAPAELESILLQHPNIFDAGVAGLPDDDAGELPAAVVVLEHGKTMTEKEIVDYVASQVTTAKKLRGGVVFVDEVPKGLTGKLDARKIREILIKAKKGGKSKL
Experimental: The DTT, Coenzyme A, and QuantiLum stock solutions are the same as those described herein.
This solution was diluted 1:1 with water to produce an enzyme solution labeled "No addition." This solution was diluted 1:1 with 400 mM DTT, pH 8.0 to produce a solution labeled +DTT. This solution was diluted 1:1 with 4 mM Coenzyme A to produce a solution labeled + Co A. Finally, this solution was diluted 1:1 with a solution having both 4 mM Coenzyme A and 400 mM DTT to produce a solution labeled +Co A & DTT.
50 µl samples of these solutions were placed in the wells of luminometer microtiter plates, row A to row G, respeutivly. Row H of the plates was given 50 µl of water.
Reactions in these plates were initiated by addition of 50 µl of solution containing QuantiLum luciferase using a 12 channel micropipette. The solutions added to the rows were: columns 1, 5, and 9 - no addition solution; columns 2, 6, and 10 - + Co A solution; columns 3, 7, and 11 + DTT solution, and; columns 4, 8, and 12 - + Co A and DTT solution. After addition of the enzyme solution to the first row on every plate, a timer was started. After addition of the enzyme solution to the last row on each plate, the plate was sealed and read on a Veritas luminometer.

[2] = biological target: T3, human recombinant monoamine oxidase A (MAO A) (Homo sapiens, UniProt P21397); test: Two-step luminescent MAO assay with luciferin derivative; details: for RLUmax: fit of Tables 23-24 (TableCurve)
T3 sequence (P21397 1-527): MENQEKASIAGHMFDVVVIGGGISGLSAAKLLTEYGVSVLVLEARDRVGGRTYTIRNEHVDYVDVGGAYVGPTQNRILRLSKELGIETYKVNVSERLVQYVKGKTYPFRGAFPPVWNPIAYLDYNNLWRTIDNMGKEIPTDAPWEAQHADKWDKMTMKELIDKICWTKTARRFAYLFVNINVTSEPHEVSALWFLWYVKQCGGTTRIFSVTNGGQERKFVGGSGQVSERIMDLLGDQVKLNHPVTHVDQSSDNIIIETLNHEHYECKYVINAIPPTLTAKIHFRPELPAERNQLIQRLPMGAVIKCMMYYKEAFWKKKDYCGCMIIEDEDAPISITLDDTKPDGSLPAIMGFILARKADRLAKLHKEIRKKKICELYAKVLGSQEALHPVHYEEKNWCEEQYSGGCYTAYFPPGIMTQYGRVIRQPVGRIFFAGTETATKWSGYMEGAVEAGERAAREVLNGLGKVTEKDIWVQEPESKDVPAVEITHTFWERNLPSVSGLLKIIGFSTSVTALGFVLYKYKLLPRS

luciferase = test: No-enzyme control: activity of luciferase towards the luciferin derivative (background luminescence); details: wild type microsomes instead of FMO 3
[3] = system: human recombinant flavin-containing monooxygenase 3 (FMO 3); test: Two-step luminescent FMO assay with luciferin derivative; format: biochemical

NCCCOc1ccc2nc(C3=N[C@@H](C(=O)O)CS3)sc2c1 [MAO-3, 6-Aminopropoxyluciferin]
RLUmax [1]: 660 | light emission values (QuantiLum Luciferase; Derivative Conc. 1.07, Alone): 94583 | light emission values (QuantiLum Luciferase; Derivative Conc. 1.07, Co A): 122510 | light emission values (QuantiLum Luciferase; Derivative Conc. 1.07, Co A + DTT): 52637 | light emission values (QuantiLum Luciferase; Derivative Conc. 1.07, DTT): 111682 | light emission values (QuantiLum Luciferase; Derivative Conc. 3.13, Alone): 131633 | light emission values (QuantiLum Luciferase; Derivative Conc. 3.13, Co A): 176814 | light emission values (QuantiLum Luciferase; Derivative Conc. 3.13, Co A + DTT): 171233 | light emission values (QuantiLum Luciferase; Derivative Conc. 3.13, DTT): 200074 | light emission values (QuantiLum Luciferase; Derivative Conc. 6.25, Alone): 201597 | light emission values (QuantiLum Luciferase; Derivative Conc. 6.25, Co A): 321914 | light emission values (QuantiLum Luciferase; Derivative Conc. 6.25, Co A + DTT): 82531 | light emission values (QuantiLum Luciferase; Derivative Conc. 6.25, DTT): 348398 | light emission values (QuantiLum Luciferase; Derivative Conc. 12.5, Alone): 252130 | light emission values (QuantiLum Luciferase; Derivative Conc. 12.5, Co A): 467021 | light emission values (QuantiLum Luciferase; Derivative Conc. 12.5, Co A + DTT): 509896 | light emission values (QuantiLum Luciferase; Derivative Conc. 12.5, DTT): 525765 | light emission values (QuantiLum Luciferase; Derivative Conc. 25, Alone): 272608 | light emission values (QuantiLum Luciferase; Derivative Conc. 25, Co A): 588881 | light emission values (QuantiLum Luciferase; Derivative Conc. 25, DTT): 733675 | light emission values (QuantiLum Luciferase; Derivative Conc. 50, Alone): 179585 | light emission values (QuantiLum Luciferase; Derivative Conc. 50, Co A): 444494 | light emission values (QuantiLum Luciferase; Derivative Conc. 50, Co A + DTT): 865209 | light emission values (QuantiLum Luciferase; Derivative Conc. 50, DTT): 868903 | light emission values (QuantiLum Luciferase; Derivative Conc. 100, Alone): 348013 | light emission values (QuantiLum Luciferase; Derivative Conc. 100, Co A): 741882 | light emission values (QuantiLum Luciferase; Derivative Conc. 100, Co A + DTT): 1019425 | light emission values (QuantiLum Luciferase; Derivative Conc. 100, DTT): 994617 | RLUmax [2]: 210

CNCCCOc1ccc2nc(C3=N[C@@H](C(=O)O)CS3)ccc2c1 [MAO-7, 6-(3-methylaminopropoxy)quinolinyl-lucifexin]
relative light units, control (luciferase; [MAO-7] 43 µM): 1043 RLUs | relative light units, control (luciferase; [MAO-7] 86 µM): 1585 RLUs | relative light units, control (luciferase; [MAO-7] 258 µM): 3592 RLUs | relative light units, control (luciferase; [MAO-7] 344 µM): 4486 RLUs | relative light units, control (luciferase; [MAO-7] 516 µM): 6137 RLUs | relative light units, control (luciferase; [MAO-7] 688 µM): 7213 RLUs | RLUmax [1]: 48 | relative light units, FMO 3 ([3]; [MAO-7] 43 µM): 8220 RLUs | relative light units, net FMO 3 ([3]; [MAO-7] 43 µM): 7177 RLUs | relative light units, FMO 3 ([3]; [MAO-7] 86 µM): 13646 RLUs | relative light units, net FMO 3 ([3]; [MAO-7] 86 µM): 12061 RLUs | relative light units, FMO 3 ([3]; [MAO-7] 258 µM): 28987 RLUs | relative light units, net FMO 3 ([3]; [MAO-7] 258 µM): 25395 RLUs | relative light units, FMO 3 ([3]; [MAO-7] 344 µM): 34036 RLUs | relative light units, net FMO 3 ([3]; [MAO-7] 344 µM): 29550 RLUs | relative light units, FMO 3 ([3]; [MAO-7] 516 µM): 40329 RLUs | relative light units, net FMO 3 ([3]; [MAO-7] 516 µM): 34192 RLUs | relative light units, FMO 3 ([3]; [MAO-7] 688 µM): 42707 RLUs | relative light units, net FMO 3 ([3]; [MAO-7] 688 µM): 35494 RLUs | Km ([3]; fit of Table 33, CHES pH 9.5): 200 ± 20 µM | RLUmax [2]: 750 | substrate specificity as indicated by the ratio RLUmax/Km ([2]; result in words): more specific substrate for MAO A
